Publication PMC6471523, “Biological Evaluation and Docking Analysis of Potent BACE1 Inhibitors from Boesenbergia rotunda” (Nutrients, 2019)
≈ marks a conversion by molar mass, not a printed value.

What was measured:
BACE1 [1] = molecular target: T1, BACE1 (Homo sapiens, UniProt P56817); experiment: In vitro BACE1 enzyme inhibitory assay (fluorescence); type: biochemical; details: for IC50: 60 min, 25 °C, pH 4.5, mean ± SD of three experiments, read-out: IC50 (mean ± SD) against BACE1
T1 construct: purchased Invitrogen (Pan Vera, Madison, WI, USA)
T1 sequence (P56817 46-501): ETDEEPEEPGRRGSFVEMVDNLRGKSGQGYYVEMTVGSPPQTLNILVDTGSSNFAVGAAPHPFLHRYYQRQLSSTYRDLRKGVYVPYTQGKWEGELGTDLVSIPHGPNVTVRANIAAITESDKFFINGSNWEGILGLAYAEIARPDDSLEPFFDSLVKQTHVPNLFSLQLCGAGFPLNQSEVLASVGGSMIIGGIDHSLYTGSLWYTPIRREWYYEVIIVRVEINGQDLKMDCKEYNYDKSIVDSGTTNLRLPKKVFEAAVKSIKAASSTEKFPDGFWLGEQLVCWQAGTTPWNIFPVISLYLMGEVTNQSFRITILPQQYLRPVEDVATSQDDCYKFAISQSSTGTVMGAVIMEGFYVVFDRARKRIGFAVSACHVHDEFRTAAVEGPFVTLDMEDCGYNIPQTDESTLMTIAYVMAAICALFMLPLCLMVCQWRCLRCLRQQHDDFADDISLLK
Description: Enzyme assays for BACE1, TACE, chymotrypsin, trypsin, and elastase were carried out according to previously described methods [27]. Briefly, reaction mixtures containing human recombinant BACE1 (1.0 U/mL), a specific substrate (Rh-[sequence]-Quencher in 50 mM ammonium bicarbonate), and samples dissolved in an assay buffer (50 mM sodium acetate, pH 4.5) were incubated for 60 min at 25 °C in well plates. […] The inhibition ratio was obtained using the following equation:Inhibition (%) = [1 − (S − S0)/(C − C0)] × 100 where C was the fluorescence of control (enzyme, assay buffer, and substrate) after 60 min of incubation, C0 was the fluorescence of control at time 0, S was the fluorescence of tested samples (enzyme, sample solution, and substrate) after 60 min of incubation, and S0 was the fluorescence of the tested samples at time 0.

chymotrypsin = test system: T2, chymotrypsin; experiment: Chymotrypsin absorbance inhibition assay; type: biochemical
T2 construct: purchased Sigma-Aldrich (St. Louis, MO, USA)
Description: (§1) Absorbance assays for trypsin, chymotrypsin, and elastase were estimated using N-benzoyl-ʟ-Arg-pNA, N-benzoyl-ʟ-Tyr-pNA, and N-succinyl-Ala-Ala-Ala-pNA as substrates, respectively. Enzyme, Tris-HCl buffer (0.05 M, in 0.02 M CaCl2, pH 8.2), and tested samples were incubated for 10 min at 25 °C then added to the substrate for 30 min at 37 °C. The absorbance was recorded at 410 nm. The inhibition ratio was obtained using the following equation:Inhibition (%) = {[1 − (A − B)]/control} × 100 where A was the absorbance of control (enzyme, assay buffer, and substrate) after 60 min of incubation, and B was the absorbance of the tested sample (assay buffer and sample solution) after 60 min of incubation.

[2] = parameters: method as in PMID 29066742; details: 10 mg/kg, 30 weeks; cited from earlier work
[3] = parameters: method as in PMID 28271112; details: calculated; in Å2 (unit assumed); cited from earlier work
BACE1 [4] = molecular target: T1, BACE1; experiment: BACE1 inhibition kinetics (Dixon and Lineweaver–Burk plots); type: biochemical; details: for Inhibition Mode: Dixon and Lineweaver–Burk plots; for Ki: Dixon plot
Description: The dissociation constant (Ki) was obtained by Dixon plot and maximum reaction velocity (Vmax) and Michaelis–Menten constant (Km) values were determined by Lineweaver–Burk plot using SigmaPlot™ version 12.3 (Systat Software, Inc., San Jose, CA, USA).
The type of inhibition and kinetic analysis was determined using a Michaelis–Menten curve, Dixon plot, and Lineweaver–Burk plot (Figure 2). The three lines of the Dixon plots intersected on the x-axis of the same plot (Figure 2b,e,h). […] This pattern indicated non-competitive inhibitory activity against BACE1, thereby interacting with locations other than the active binding site for these compounds. For noncompetitive inhibition of enzymes, the Ki value of inhibitor is essentially the same numerical value as the IC50 [29].

[5] = Physicochemical properties for BBB permeability prediction; details: inferred from MW, PSA and clog P
Excerpt: However, few BACE1 inhibitors have been marketed to treat AD due to the difficulty in developing therapeutic agents that can efficiently cross the BBB and reach appropriate concentrations in the cerebral parenchyma, and, moreover, can do so without side effects. Recently, QSAR study approaches have been used to generate predictive models for BBB permeability. […] Cardamonin has a MW of 270.28, a PSA value calculated as 66.76, and a clog P of 4.54, obtained by determining the partition coefficient between n-octanol and water.

elastase = test system: T3, elastase; experiment: Elastase absorbance inhibition assay; type: biochemical
T3 construct: purchased Sigma-Aldrich (St. Louis, MO, USA)
Description: as §1

human recombinant TACE = test system: T4, human recombinant TACE; experiment: TACE (α-secretase) enzyme inhibitory assay; type: biochemical
T4 construct: purchased R&D Systems (Minneapolis, MN, USA)
Description: A human recombinant TACE (0.1 ppm in 25 mM Tris buffer), the substrate (APP peptide […] using EDANS/DABCYL), and samples were dissolved in an assay buffer, which were then combined and incubated for 60 min in the dark at 25 °C. The increase in fluorescence intensity produced by substrate hydrolysis was measured by using a microplate reader with excitation and emission wavelengths of 320 and 405 nm, respectively.

HIV-1 protease = test system: HIV-1 protease; parameters: method as in earlier work; details: cited from earlier work
trypsin = experiment: Trypsin absorbance inhibition assay; type: biochemical
Description: as §1

[6] = test system: APP/PS1 transgenic mouse model; details: 40 mg/kg, 3-month period; cited from earlier work
Wister rats = details: 100 mg/kg, 7 days; cited from earlier work
[7] = test system: intracerebroventricular Aβ25–35-injected mice; details: oral, 20 mg/kg, 8 days; cited from earlier work
[8] = test system: rat model of global cerebral ischemia-reperfusion; details: oral, 10 mg/kg, 7 days; cited from earlier work
BBB = details: in vitro study; cited from earlier work

| SMILES | IC50 (BACE1 [1]) [µM] | Inhibitory activity (%) Chymotrypsin (chymotrypsin; sample 100 μM) [%] | Inhibition Mode (BACE1 [4]) | Ki (BACE1 [4]) [µM] | Inhibitory activity (%) Elastase (elastase; sample 100 μM) [%] | Inhibitory activity (%) TACE (human recombinant TACE; sample 100 μM) [%] | IC50 HIV-1 protease activity (HIV-1 protease) [µg/mL] | Inhibitory activity (%) Trypsin (trypsin; sample 100 μM) [%] | Inhibitory activity (%) Chymotrypsin (chymotrypsin; sample 10 μM) [%] | Toxicity or mutagenic effects after oral administration (Wister rats) | Inhibitory activity (%) Elastase (elastase; sample 10 μM) [%] | Inhibitory activity (%) TACE (human recombinant TACE; sample 10 μM) [%] | Inhibitory activity (%) Trypsin (trypsin; sample 10 μM) [%] | further results |
| --- | --- | --- | --- | --- | --- | --- | --- | --- | --- | --- | --- | --- | --- | --- |
| COc1cc(O)cc(O)c1C(=O)/C=C/c1ccccc1 [Cardamonin, 2′,4′-dihydroxy-6′-methoxychalcone] | 4.35 ± 0.38 | 4.23 ± 0.55 | Noncompetitive | 5.1 | 1.41 ± 0.19 | 2.69 ± 1.44 | 31.0 (≈ 115 µM) | 3.74 ± 0.53 | – | – | – | – | – | BACE1 IC50 relative to resveratrol (BACE1 [1]; comparison of IC50 values): three-fold higher; BACE1 inhibition relative to pinocembrin and pinostrobin (BACE1 [1]; comparison of IC50 values): six-fold more effective; Inhibitory activity (%) Chymotrypsin (chymotrypsin; sample 50 μM): 6.20 ± 0.41%; Toxicity after chronic oral administration [2]: did not elicit any apparent toxicity; polar surface area (PSA) [3]: 66.76; Predicted BBB crossing [5]: predicted to cross the BBB; Inhibitory activity (%) Elastase (elastase; sample 50 μM): 2.29 ± 0.41%; Inhibitory activity (%) TACE (human recombinant TACE; sample 50 μM): 1.38 ± 0.36%; Inhibitory activity (%) Trypsin (trypsin; sample 50 μM): 1.13 ± 0.18% |
| O=C1CC(c2ccccc2)Oc2cc(O)cc(O)c21 (centres unmarked) [Pinocembrin, 5,7-dihydroxyflavanone] | 27 ± 2.12 | 8.61 ± 1.09 | Noncompetitive | 29.3 | 2.56 ± 0.08 | 6.95 ± 1.52 | > 100 | 4.96 ± 0.27 | 7.18 ± 1.87 | did not induce any toxicity or mutagenic effects | 3.24 ± 0.19 | 5.15 ± 0.98 | 4.35 ± 0.26 | Effect on cognitive deficits and neurovascular unit [6]: attenuated cognitive deficits and protected the neurovascular unit; Effect on cognitive impairment [7]: significantly improved cognitive impairment; Effect on hippocampal inflammation, oxidative stress and apoptosis [8]: suppressed hippocampal inflammation, oxidative stress, and apoptosis; BBB crossing in vitro (BBB): could cross the BBB by passive transport partly through P-glycoprotein |
| COc1cc(O)c2c(c1)OC(c1ccccc1)CC2=O (centres unmarked) [Pinostrobin, 5-hydroxy-7methoxyflavanone] | 28.4 ± 1.96 | 5.41 ± 0.49 | Noncompetitive | 30.9 | 2.63 ± 0.37 | 9.19 ± 1.20 | > 100 | 1.52 ± 0.05 | 3.29 ± 0.25 | did not induce any toxicity or mutagenic effects | 5.21 ± 0.41 | 8.53 ± 1.05 | 3.19 ± 0.16 | – |
